Some test systems named below: NCI/ADR-RES; IGROV-1; UACC-257; DU-145; UO-31; RXF 393; HL-60; CCRF-CEM; Malme-3M; OVCAR-4; EKVX; MDA-MB-231; NCI-H460; HCT-116; KM12; OVCAR-3; A549; SNB-19; COLO 205; NCI-H522.
Common to all, as to experiment: NCI tumour cell line growth inhibition, 48 h

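Following 48 hours of exposure in 96-well plates, responses at five concentrations were used to interpolate endpoints linearly. GI50 marks 50% less growth.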 Active and inactive are the calls of the source. Rule as the data show it: active = GI50 up to about 1.1 µM and inactive = higher. A value given as a limit tells only on which side of the number the result lay.

As to `CN1CCC(O)(C(C)(C)C)CC1`, the GI50 with NCI/ADR-RES, in the assay on IGROV-1, in the assay on UACC-257, in the assay with DU-145, in the assay on UO-31 and with RXF 393 was > 100 µM (inactive) in each case. Also, the GI50 in the assay on HL-60, in the assay with CCRF-CEM, in the assay with Malme-3M, in the assay with OVCAR-4, in the assay on EKVX and in the assay on MDA-MB-231 was > 100 µM (inactive) in each case. Also, the GI50 in the assay on NCI-H460, in the assay with HCT-116, in the assay with KM12, in the assay with OVCAR-3, with A549 and in the assay with SNB-19 was > 100 µM (inactive) throughout. In the assay on COLO 205, the GI50 was > 100 µM (inactive).

For `CCOC(=O)[C@@H]1ON2O[C@@H](OC3CCCC3(c3ccccc3)c3ccccc3)C[C@H]3OC(=O)[C@@H]1C32` (stereo partly drawn), the GI50 is 34.4 µM (inactive) in the assay with NCI/ADR-RES; 33.8 µM (inactive) in the assay on IGROV-1; 21.4 µM (inactive) in the assay on UACC-257; 22.6 µM (inactive) in the assay with DU-145; 33.1 µM (inactive) in the assay on NCI-H522; 19.1 µM (inactive) in the assay on UO-31. Also, the GI50 with RXF 393 is 17.1 µM (inactive); with HL-60, 23.2 µM (inactive); in the assay with CCRF-CEM, 27.5 µM (inactive); with EKVX it was > 100 µM (inactive); in the assay with MDA-MB-231, 25.2 µM (inactive); in the assay on NCI-H460, 35.6 µM (inactive). The GI50 in the assay with HCT-116 was 33.8 µM (inactive); in the assay with KM12, 15.6 µM (inactive); in the assay with OVCAR-3, 23.4 µM (inactive); in the assay on A549 it was < 0.01 µM (active); with COLO 205, 38.1 µM (inactive).

Consider `O=C1c2cccc3cccc(c23)C(=O)N1CCCNOCCONCCCN1C(=O)c2cccc3cccc(c23)C1=O`, for which the GI50 was 12.7 µM (inactive) in the assay on NCI/ADR-RES; 62.8 µM (inactive) in the assay on IGROV-1; 67.6 µM (inactive) in the assay with UACC-257; > 100 µM (inactive) in the assay with DU-145; 45.5 µM (inactive) with UO-31; 29.4 µM (inactive) in the assay with RXF 393. For the same compound, the GI50 was 4.84 µM (inactive) in the assay with HL-60; 11.8 µM (inactive) with CCRF-CEM; 91.2 µM (inactive) in the assay on Malme-3M; 86.3 µM (inactive) in the assay on OVCAR-4; > 100 µM (inactive) in the assay with EKVX; > 100 µM (inactive) with MDA-MB-231. In addition, the GI50 with NCI-H460 was 59.4 µM (inactive); in the assay with HCT-116, 27.4 µM (inactive); in the assay with KM12, > 100 µM (inactive); in the assay on OVCAR-3, 94 µM (inactive); in the assay with A549 it was 95.9 µM (inactive); with SNB-19, 47.9 µM (inactive). Moreover, in the assay on COLO 205, the GI50 was 83.8 µM (inactive).

As for `CC(C)OC(=O)NNc1cccc(Cl)c1`, the GI50 in the assay with NCI/ADR-RES was > 100 µM (inactive); in the assay on UACC-257 it was > 100 µM (inactive); in the assay on DU-145 it was > 100 µM (inactive); in the assay with UO-31, > 100 µM (inactive); in the assay with RXF 393, > 100 µM (inactive); with HL-60, 33.3 µM (inactive). Further, the GI50 in the assay with CCRF-CEM, with Malme-3M, with EKVX, in the assay on MDA-MB-231, with NCI-H460 and in the assay with HCT-116 was > 100 µM (inactive) each time. The GI50 in the assay on KM12, in the assay with OVCAR-3, with A549, in the assay on SNB-19 and with COLO 205 was > 100 µM (inactive) throughout.

As to `C=CC[C@H](O)[C@@](NC(=O)OCc1ccccc1)(Sc1ccc(C)cc1)C(F)(F)F`, the GI50 in the assay with NCI/ADR-RES was 31.1 µM (inactive); in the assay on IGROV-1 it was 10.1 µM (inactive); with UACC-257 it was 23.4 µM (inactive); with DU-145, 35.7 µM (inactive); in the assay on NCI-H522, 15.5 µM (inactive); in the assay with UO-31, 17.9 µM (inactive). The GI50 with RXF 393 was 23.3 µM (inactive); with HL-60, 11.5 µM (inactive); with Malme-3M, 56.8 µM (inactive); in the assay on OVCAR-4 it was 28.2 µM (inactive); in the assay with EKVX, 30.6 µM (inactive); in the assay with MDA-MB-231, 24.8 µM (inactive). Besides, the GI50 was 30.7 µM (inactive) in the assay with NCI-H460; 20.5 µM (inactive) with HCT-116; 25.8 µM (inactive) in the assay on KM12; 21.8 µM (inactive) in the assay with OVCAR-3; 27.7 µM (inactive) with A549; 32.6 µM (inactive) with SNB-19. In the assay with COLO 205, the GI50 is 20.3 µM (inactive).

On to `CC(=O)Nc1ccc(Nc2cc(O)nc(O)n2)cc1`, for which the GI50 in the assay with NCI/ADR-RES, in the assay with IGROV-1, in the assay on UACC-257, with DU-145, with UO-31 and in the assay on RXF 393 was > 100 µM (inactive) in each case. Moreover, the GI50 in the assay with HL-60, in the assay with Malme-3M, in the assay with OVCAR-4, in the assay on EKVX, with MDA-MB-231 and in the assay on NCI-H460 was > 100 µM (inactive) throughout. The GI50 with HCT-116, in the assay with KM12, with OVCAR-3, with A549, in the assay with SNB-19 and with COLO 205 was > 100 µM (inactive) in each case.

Turning to `CCc1n[nH]c(=O)n1/N=C(\C)c1ccccc1`, the GI50 with NCI/ADR-RES, with IGROV-1, with UACC-257, in the assay on DU-145, with NCI-H522 and with UO-31 was > 100 µM (inactive) each time. Also, the GI50 in the assay on RXF 393 was > 100 µM (inactive); with HL-60 it was > 100 µM (inactive); in the assay with CCRF-CEM, > 100 µM (inactive); with Malme-3M, > 100 µM (inactive); with OVCAR-4, > 100 µM (inactive); with EKVX, 68.5 µM (inactive). Moreover, the GI50 in the assay with MDA-MB-231, in the assay with HCT-116, with KM12, in the assay with OVCAR-3, in the assay with A549 and with SNB-19 was > 100 µM (inactive) in each case. In the assay on COLO 205, the GI50 was > 100 µM (inactive).

Turning to `O=C(c1ccccc1)c1ccc(-n2c3ccccc3c3ccc4c(c32)C(=O)C=CC4=O)cc1`, the GI50 with NCI/ADR-RES is 18.8 µM (inactive); in the assay on IGROV-1 it was 16 µM (inactive); in the assay with UACC-257, 12.7 µM (inactive); in the assay on DU-145, 10.5 µM (inactive); with NCI-H522 it was 3.43 µM (inactive); in the assay with UO-31, 2.74 µM (inactive). Also, the GI50 is 5.24 µM (inactive) with RXF 393; 2.8 µM (inactive) in the assay on HL-60; 1.11 µM (active) in the assay with CCRF-CEM; 16.3 µM (inactive) in the assay with OVCAR-4; 11 µM (inactive) with EKVX; 8.24 µM (inactive) with MDA-MB-231. In addition, the GI50 with NCI-H460 was 18.5 µM (inactive); with HCT-116 it was 5.2 µM (inactive); in the assay on KM12 it was 17.5 µM (inactive); with OVCAR-3, 7.59 µM (inactive); with A549, 18.5 µM (inactive); in the assay with SNB-19, 20.9 µM (inactive). Also, in the assay on COLO 205, the GI50 is 9.12 µM (inactive).

Consider `Nc1nc(Cc2ccccc2)nc(Cc2ccccc2)c1-c1ccccc1`, for which the GI50 in the assay on NCI/ADR-RES was 16.7 µM (inactive); in the assay on IGROV-1, 26.4 µM (inactive); with UACC-257 it was 37.3 µM (inactive); in the assay on DU-145, 22.8 µM (inactive); with NCI-H522 it was 16.9 µM (inactive); in the assay with UO-31 it was 27 µM (inactive). Further, the GI50 in the assay on RXF 393 is 22.6 µM (inactive); with HL-60, 24 µM (inactive); with Malme-3M, 20.4 µM (inactive); in the assay with OVCAR-4, 38.5 µM (inactive); in the assay on EKVX, 11.4 µM (inactive); in the assay on MDA-MB-231 it was 18.7 µM (inactive). In addition, the GI50 in the assay with NCI-H460 was 28.2 µM (inactive); in the assay with HCT-116, 19.5 µM (inactive); with KM12, 28.1 µM (inactive); in the assay on OVCAR-3 it was 14.7 µM (inactive); in the assay on A549, 33.9 µM (inactive); in the assay on SNB-19, 75.7 µM (inactive).

Consider `Cc1ccccc1-n1c(=O)c2ncn(C3CCCO3)c2n(-c2ccccc2C)c1=S` (stereo not drawn), for which the GI50 with NCI/ADR-RES, with IGROV-1, in the assay with UACC-257, in the assay on DU-145, in the assay on NCI-H522 and in the assay on UO-31 was > 100 µM (inactive) in each case. The GI50 in the assay with RXF 393 is > 100 µM (inactive); in the assay on HL-60, > 100 µM (inactive); in the assay with CCRF-CEM, > 100 µM (inactive); in the assay on Malme-3M, > 100 µM (inactive); in the assay with OVCAR-4, > 10 µM (inactive); with EKVX it was > 100 µM (inactive). In addition, the GI50 in the assay with MDA-MB-231, in the assay with HCT-116, in the assay on KM12, with OVCAR-3, in the assay with A549 and with SNB-19 was > 100 µM (inactive) throughout. Also, the GI50 in the assay with COLO 205 was > 100 µM (inactive).

With `Cc1ccc2nc3sc(=O)sc3nc2c1` [CHINOMETHIONAT], the GI50 was 14.8 µM (inactive) in the assay with NCI/ADR-RES; 16.1 µM (inactive) with IGROV-1; 16.9 µM (inactive) in the assay on UACC-257; > 100 µM (inactive) in the assay with DU-145; 17.5 µM (inactive) in the assay with NCI-H522; 15.4 µM (inactive) in the assay on UO-31. Further, the GI50 with RXF 393 is 18.1 µM (inactive); in the assay with HL-60, 16.6 µM (inactive); in the assay on CCRF-CEM, 31.5 µM (inactive); in the assay with OVCAR-4 it was 13.7 µM (inactive); in the assay on EKVX it was 14.2 µM (inactive); in the assay with MDA-MB-231, 17.3 µM (inactive). In addition, the GI50 is 12.9 µM (inactive) with NCI-H460; 17.2 µM (inactive) in the assay on HCT-116; 15.6 µM (inactive) in the assay on KM12; 14.5 µM (inactive) with OVCAR-3; 16.1 µM (inactive) in the assay on A549; 18.2 µM (inactive) in the assay with SNB-19. Moreover, in the assay with COLO 205, the GI50 was 13.9 µM (inactive).

The values above are taken from ChEMBL document CHEMBL1201862, “PubChem BioAssay data set” (2004).
